Values after ≈ are worked out from the molar mass of the structure shown.
Key:
Homo sapiens [1] = species on record: Homo sapiens; test: Selectivity ratio of IC50 for human HDAC3 to IC50 for recombinant human full length HDAC6 expressed in baculovirus infected Sf9 insect cells
[2] = target: T1, Protein deacetylase HDAC6 (Homo sapiens, UniProt Q9UBN7); test: Inhibition of recombinant human full length HDAC6 expressed in baculovirus infected Sf9 insect cells using RHKKAC as substrate incubated for 5 to 10 mins followed by substrate addition measured after 2 hrs by fluorescence assay
T1 sequence (Q9UBN7 whole entry): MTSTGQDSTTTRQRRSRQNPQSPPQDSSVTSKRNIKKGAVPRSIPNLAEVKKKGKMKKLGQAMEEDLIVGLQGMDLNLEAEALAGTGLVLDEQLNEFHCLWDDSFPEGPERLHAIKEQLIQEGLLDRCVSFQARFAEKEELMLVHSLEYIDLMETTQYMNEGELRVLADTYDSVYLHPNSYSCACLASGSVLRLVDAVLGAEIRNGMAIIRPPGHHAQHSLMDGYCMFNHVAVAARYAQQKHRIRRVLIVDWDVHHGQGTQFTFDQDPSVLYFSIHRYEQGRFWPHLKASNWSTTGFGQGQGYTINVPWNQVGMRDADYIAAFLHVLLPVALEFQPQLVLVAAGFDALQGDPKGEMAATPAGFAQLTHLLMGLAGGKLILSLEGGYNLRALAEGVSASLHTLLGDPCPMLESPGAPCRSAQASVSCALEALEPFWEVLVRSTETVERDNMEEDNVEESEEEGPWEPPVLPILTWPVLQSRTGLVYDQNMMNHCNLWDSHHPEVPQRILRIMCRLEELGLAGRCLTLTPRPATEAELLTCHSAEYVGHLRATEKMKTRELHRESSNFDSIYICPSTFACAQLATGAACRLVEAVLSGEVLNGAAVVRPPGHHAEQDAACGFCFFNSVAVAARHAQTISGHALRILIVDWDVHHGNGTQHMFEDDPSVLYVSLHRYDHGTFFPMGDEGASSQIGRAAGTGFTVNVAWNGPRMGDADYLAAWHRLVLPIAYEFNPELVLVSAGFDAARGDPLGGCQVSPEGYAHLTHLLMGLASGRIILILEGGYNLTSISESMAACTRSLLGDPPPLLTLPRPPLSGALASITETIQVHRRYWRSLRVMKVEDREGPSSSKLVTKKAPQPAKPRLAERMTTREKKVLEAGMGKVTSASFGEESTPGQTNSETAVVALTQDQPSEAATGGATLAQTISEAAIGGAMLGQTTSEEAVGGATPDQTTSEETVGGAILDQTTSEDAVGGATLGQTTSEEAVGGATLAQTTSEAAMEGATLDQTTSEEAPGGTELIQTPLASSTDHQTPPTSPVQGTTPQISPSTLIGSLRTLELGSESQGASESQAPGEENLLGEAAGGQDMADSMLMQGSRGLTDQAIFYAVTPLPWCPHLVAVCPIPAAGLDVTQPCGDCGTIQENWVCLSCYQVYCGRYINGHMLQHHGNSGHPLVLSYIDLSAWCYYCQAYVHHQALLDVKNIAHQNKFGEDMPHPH

Homo sapiens [3] = species on record: Homo sapiens; test: Selectivity ratio of IC50 for recombinant human full length HDAC1 expressed in baculovirus infected Sf9 insect cells to IC50 for recombinant human full length HDAC6 expressed in baculovirus infected Sf9 insect cells
Homo sapiens [4] = species on record: Homo sapiens; test: Selectivity ratio of IC50 for human HDAC2 to IC50 for recombinant human full length HDAC6 expressed in baculovirus infected Sf9 insect cells
HeLa = test: Antiproliferative activity against human HeLa cells after 48 hrs by MTT assay; assay type: functional, cell-based
MCF7 = test: Antiproliferative activity against human MCF7 cells after 48 hrs by MTT assay; assay type: functional, cell-based; conditions: MCF7, 48 h
[5] = test system: Mycobacterium tuberculosis; test: Antimycobacterial activity against Mycobacterium tuberculosis H37Rv; assay type: functional
Staphylococcus aureus = test: Antibacterial activity against Staphylococcus aureus ATCC 6538P after 24 hrs by agar well diffusion method; assay type: functional
Escherichia coli = test: Antibacterial activity against Escherichia coli ATCC 8739 after 24 hrs by agar well diffusion method; assay type: functional; conditions: ATCC 8739, 24 h
MC-38 = test: Cytotoxicity against mouse Colon 38 cells after 5 days by hemocytometry; assay type: functional, cell-based; conditions: MC-38, 120 h
CT26 = test: Cytotoxicity against mouse CT26 cells after 5 days by hemocytometry; assay type: functional, cell-based; conditions: CT26, 120 h
HCT-116 [6] = test: Antitumor activity against human HCT116 cells xenografted in BALB/c nude mouse assessed as tumor growth inhibition at 50 mg/kg, ip for 16 days; assay type: functional; conditions: HCT-116, ip, 384 h, read-out: TGI
HCT-116 [7] = test: Antitumor activity against human HCT116 cells xenografted in BALB/c nude mouse assessed as tumor growth inhibition at 100 mg/kg, ip for 16 days; assay type: functional; conditions: HCT-116, ip, 384 h, read-out: TGI

SMILES	Ratio IC50 (Homo sapiens [1])	IC50 [2] [nM]	Ratio IC50 (Homo sapiens [3])	Ratio IC50 (Homo sapiens [4])	also measured
CCCCCCC(=O)Nc1cccc(-c2cc(C(=O)NCc3ccc(C(=O)NO)cc3)no2)c1	> 500	< 10	> 500	> 500	
COc1ccc(-c2cc(-c3cccs3)on2)cc1OC					IC50 (HeLa): 39.2 µM; IC50 (MCF7): 19.5 µM
CC(C)(C)OC(=O)Nc1ccc(-c2cc(C(=O)NCc3ccc(C(=O)NO)cc3)no2)cc1	> 500	< 10	> 500	> 500	
CCOC(=O)c1cc(/C=C/c2ccnc3ccccc23)on1					MIC [5]: 0.2 µM (≈ 0.0589 µg/mL)
O=[N+]([O-])c1ccc(-c2cc(C3CC3)no2)cc1					MIC (Staphylococcus aureus): 25 µg/mL (≈ 109 µM); MIC (Escherichia coli): 25 µg/mL (≈ 109 µM)
CC(C)(C)OC(=O)Nc1cccc(-c2cc(C(=O)NCc3ccc(C(=O)NO)cc3)no2)c1	> 500	< 10	> 500	> 500	
O=C(Nc1ccc(Cl)cc1)c1ccno1					IC50 (MC-38): 2.5 µg/mL (≈ 11.2 µM); IC50 (CT26): 2.5 µg/mL (≈ 11.2 µM)
CCc1cc(-c2oncc2-c2ccc(OC)cc2)c(O)cc1OC					inhibition in vivo at 50 mg/kg (HCT-116 [6]): 49.5%; inhibition in vivo at 100 mg/kg (HCT-116 [7]): 70.3%
CCCCCCC(=O)Nc1ccc(-c2cc(C(=O)NCc3ccc(C(=O)NO)cc3)no2)cc1	> 500	< 10	> 500	> 500	

From ChEMBL document CHEMBL4118235, “The recent progress of isoxazole in medicinal chemistry” (Bioorg Med Chem, 2018)
